Data on one compound can be found in paper PMC7724566, “Prospects for Clinical Development of Stat5 Inhibitor IST5-002: High Transcriptomic Specificity in Prostate Cancer and Low Toxicity In Vivo” (Cancers, 2020).

Molecules are shown by their SMILES.

For one assay, the system named is panel of 54 kinases. As to the kind of experiment: Cell-free kinase panels, overall. The format is biochemical. Particulars: 1 µM. The text has this:
Given that IST5 suppresses phosphorylation of Stat5 in PC cells, it is possible that IST5 inhibits the kinase(s) responsible for Stat5 phosphorylation and activation in PC cells. To evaluate if IST5 affects kinase activity in cancer cells, we tested kinase inhibitory activity of IST5 in two custom-tailored panels including 54 relevant kinases (Table 1), including Jak1, Jak2, Jak3, Tyk2, Abl1, Abl2, Lck, Fyn, Src and TrkB/C. In addition, we further tested if IST5 inhibits tyrosine phosphorylation of Jak1, Jak2, Jak3 or Tyk2 using a cell-based assay (Figure 5D), where phosphorylation of the kinase is indicative of enzymatic kinase activity. DU145 and CWR22Rv1 cells were treated with IST5 (6 µM) for 6 h followed by immunoprecipitation of Jak1, Jak2, Jak3 and Tyk2 and immunoblotting with anti-phospho-tyrosine antibody. […]
For Jak1, Jak2, Jak3 and Tyk2, a radiometric filtration binding assay was conducted by Reaction Biologicals (Malvern, PA, USA) (Table 1). […] For evaluation of the activity of the other kinases, the Kinase Seeker Technology was utilized (Luceome Biotechnologies, Tucson, AZ, USA), which is a luminescence-based cell-free assay. […] The competitive displacement of the probe by an inhibitor is measured by a change in luminescence signal. […]

The target in the next assay is T1, JAK3 (Homo sapiens, UniProt P52333).
T1 sequence (P52333 1-1124): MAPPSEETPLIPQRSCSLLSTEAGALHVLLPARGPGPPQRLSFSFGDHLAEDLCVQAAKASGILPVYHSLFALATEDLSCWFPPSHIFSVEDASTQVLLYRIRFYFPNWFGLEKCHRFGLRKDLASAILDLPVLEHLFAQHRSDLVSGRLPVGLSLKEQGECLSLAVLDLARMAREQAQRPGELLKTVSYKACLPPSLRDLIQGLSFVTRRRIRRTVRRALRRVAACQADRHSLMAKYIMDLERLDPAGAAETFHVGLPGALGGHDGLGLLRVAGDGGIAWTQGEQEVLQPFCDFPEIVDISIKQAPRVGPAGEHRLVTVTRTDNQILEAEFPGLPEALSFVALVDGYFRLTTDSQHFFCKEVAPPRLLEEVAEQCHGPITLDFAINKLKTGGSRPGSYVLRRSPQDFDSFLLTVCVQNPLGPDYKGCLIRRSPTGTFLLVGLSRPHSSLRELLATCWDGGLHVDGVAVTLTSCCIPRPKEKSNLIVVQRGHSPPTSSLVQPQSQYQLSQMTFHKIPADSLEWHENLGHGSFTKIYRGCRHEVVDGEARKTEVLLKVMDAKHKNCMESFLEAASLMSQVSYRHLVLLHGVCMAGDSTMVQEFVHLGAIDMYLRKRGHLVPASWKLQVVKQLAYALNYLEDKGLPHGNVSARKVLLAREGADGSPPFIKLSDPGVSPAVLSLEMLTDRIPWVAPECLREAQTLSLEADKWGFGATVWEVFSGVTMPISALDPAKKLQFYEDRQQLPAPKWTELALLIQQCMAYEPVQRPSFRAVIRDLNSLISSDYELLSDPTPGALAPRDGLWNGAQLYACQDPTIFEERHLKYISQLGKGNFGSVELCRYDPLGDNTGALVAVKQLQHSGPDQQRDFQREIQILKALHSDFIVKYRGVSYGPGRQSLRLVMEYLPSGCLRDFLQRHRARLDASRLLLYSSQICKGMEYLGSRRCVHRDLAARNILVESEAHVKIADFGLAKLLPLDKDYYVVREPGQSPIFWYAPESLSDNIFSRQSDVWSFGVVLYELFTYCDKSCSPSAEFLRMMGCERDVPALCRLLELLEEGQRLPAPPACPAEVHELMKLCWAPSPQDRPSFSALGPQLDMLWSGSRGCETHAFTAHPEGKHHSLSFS
As to the kind of experiment: Radiometric filtration binding cell-free kinase assay. Particulars: percent activity of kinase after exposure to IST5 1 µM. Also on record: purchased Reaction Biology (JAK1/2/3, TYK2); Luceome Biotechnologies KinaseSeeker (others). Format: biochemical. Here is the method: For Jak1, Jak2, Jak3 and Tyk2, a radiometric filtration binding assay was conducted by Reaction Biologicals (Malvern, PA, USA) (Table 1). This radiometric assay is a cell-free assay which is based on conventional filter-binding assays, directly measuring kinase catalytic activity toward a specific substrate. For evaluation of the activity of the other kinases, the Kinase Seeker Technology was utilized (Luceome Biotechnologies, Tucson, AZ, USA), which is a luminescence-based cell-free assay. In this assay, the reassembly of luciferase fragments is mediated by the interaction of a kinase with an active site-dependent probe. The competitive displacement of the probe by an inhibitor is measured by a change in luminescence signal. Percent activity of each kinase after exposure to IST5 (1 µM) is presented.

Assay [1] concerns chronic myeloid leukemia (CML) cells. On the set-up: method as in PMID 26026053. Particulars: cited from earlier work.

With `O=P(O)(O)OCC1OC(n2cnc3c(NCc4ccccc4)ncnc32)C(O)C1O` (stereo not drawn) [IST5], the “inhibitory activity against the kinases of Table 1” value with panel of 54 kinases was “no significant inhibitory activity”. For the same compound, the Activity at JAK3 was 100.0%. Also, the “efficacy in CML cells” value in assay [1] was “remarkable efficacy”.
